Patent US9499543B2, “Polymorph forms” (RaQualia Pharma Inc., priority 2013, dated 2016)

What was measured:
[1] = Photostability / storage stability study; assay type: physicochemical
Procedure: Photostability samples are stored in open dishes with quartz glass covers and a second set of 25° C./60% RH, and 40° C./75% RH samples which are stored in open round amber glass bottles covered with gauze.

[2] = Hygroscopicity study by dynamic vapor sorption (DVS) analysis; assay type: physicochemical; conditions: under 40%, 80%, and 90% relative humidity (RH) at 25 °C, comparing with compound prepared in EXAMPLE 2
Procedure: Hygroscopicity study by dynamic vapor sorption analysis (DVS)
Hygroscopicity study is performed using Surface Measurement Systems DVS-1. The sample is placed on a microbalance in the instrument and the weight change during the sorption/desorption cycle at 25° C. is monitored. One of the sorption/desorption programs consists of a sorption scan from 0 to 95% relative humidity (RH) and a desorption scan from 95 to 10% RH. The other consists of a sorption scan from 40 to 95% RH and desorption scan from 95 to 0% RH, followed by a second sorption scan from 0 to 40% RH. Both programs are carried out at 5% RH increments and the sample is allowed to equilibrate for 360 minutes or until equilibration had been attained at each step. At the end of the DVS experiment the sample is measured by PXRD.

- loss in potency ([1]; any of the stability samples over 3 months): No significant loss
- changes in the appearance, the X-ray diffraction patterns, and IR spectra ([1]; storage over 3 months, photostability, 25°C/60% RH and 40°C/75% RH samples): no significant changes
- moisture gain [2]: < 2%
Structure (SMILES): CN1N=C2CCN(C(=O)[C@@H](COCc3ccccc3)NC(=O)C(C)(C)N)C[C@@]2(Cc2ccccc2)C1=O.O=C(O)C(O)C(O)C(=O)O [Polymorph Form I, 2-amino-N-[2-(3a-(R)-benzyl-2-methyl-3-oxo-2,3,3a,4,6,7-hexahydro-pyrazolo[4,3-c]pyridin-5-yl)-1-(R)-benzyloxymethyl-2-oxo-ethyl]-isobutyramide L-tartrate Polymorph Form I]
